The results in this text go back to patent US20030044413A1, “Methods of limiting apoptosis of cells” (Regents of the University of Minnesota, priority 1998, published 2003).

For one assay, the system named is Bad. As to the kind of experiment: Western blot, liver of bile acid fed rats: Bad. The class given is in vivo, rat. Particulars: bile acid feeding. In general terms: Immunoblotting shows a protein as a band on a membrane.
Another assay relates to primary rat hepatocytes. As to the kind of experiment: Ethanol-induced apoptosis, Hoechst staining, primary rat hepatocytes. The class given is cell-based. The protocol: (§1) Incubation of cells with ethanol, TGF-β1, anti-Fas antibody or okadaic acid. Freshly isolated rat hepatocytes were cultured for 3 h as described above and then incubated with William's E medium supplemented with either 0.5% ethanol, 50 μM UDCA, ethanol plus UDCA, or no addition (control) for 2 h and 4 h. HuH-7 cells were incubated with Dulbecco's medium supplemented with either 1 nM TGF-β1 (R & D Systems, Minneapolis, Minn.), 100 μM UDCA, TGF-β1+UDCA, or no addition (control) for 24 h, 48 h, and 72 h. Hep G2 cells were incubated with Dulbecco's medium supplemented with either 0.5 μg/ml of anti-Fas antibody CH-11 (Upstate Biotechnology, Inc., Lake Placid, N.Y.), 100 μM UDCA, CH-11+UDCA, or no addition for 48 h. Both HuH-7 cells and human osteogenic sarcoma Saos-2 cells were cultured in Dulbecco's medium supplemented with either 50 nM okadaic acid (Boehringer Mannheim Biochemicals, Inc, Indianapolis, Ind.), 100 μM UDCA, okadaic acid+UDCA, or no addition for 48 h. In all the combination groups, cells were pretreated with UDCA alone for 60 min prior to addition of ethanol, TGF-β1, anti-Fas antibody or okadaic acid.
Morphological evaluation of apoptosis. Morphology was performed as described previously (Oberhammer et al., Proc. Natl. Acad. Sci. USA 89, 5408-5412 (1992)). Briefly, after fixation (with 4% formaldehyde in PBS, pH 7.4, for 10 min at room temperature), the cells were incubated with Hoechst dye 33258 (Sigma Chemical Co.) at 5 μg/ml in PBS for 5 min, washed with PBS and mounted with PBS:glycerol (3:1, v/v). Fluorescence was visualized with a Zeiss standard fluorescence microscope (Carl Zeiss, Inc., Thornwood, N.Y.). Photographs were taken with Kodak Ektar-1000 film (Eastman Kodak Co.). Stained nuclei were scored by blind analysis and categorized according to the condensation and staining characteristics of chromatin. Normal nuclei were identified as noncondensed chromatin dispersed over the entire nucleus. Apoptotic nuclei were identified by condensed chromatin, contiguous to the nuclear membrane, as well as nuclear fragmentation of condensed chromatin. Three fields per dish of approximately 500 nuclei were counted; mean values are expressed as the percent of apoptotic nuclei.

Another assay concerns Hep G2 cells. As to the kind of experiment: Anti-Fas antibody-induced apoptosis, Hep G2 cells. The class given is cell-based. The protocol:
as §1, with “In all the combination groups, cells were pretreated with UDCA alone for 60 min prior to addition of ethanol, TGF-β1, anti-Fas antibody or okadaic acid.” left out
Morphological evaluation of apoptosis. […] Fluorescence was visualized with a Zeiss standard fluorescence microscope (Carl Zeiss, Inc., Thornwood, N.Y.). […] Stained nuclei were scored by blind analysis and categorized according to the condensation and staining characteristics of chromatin. […] Three fields per dish of approximately 500 nuclei were counted; mean values are expressed as the percent of apoptotic nuclei.

The subject of assay [1] is hepatocytes, HuH-7, Hep G2 and Saos-2 cells. As to the kind of experiment: Coadministration of UDCA with each apoptosis-inducing agent, all cell types. The class given is cell-based. The protocol:
Incubation of cells with bile acids. […] The medium was gently removed at the indicated time points and scored for nonviable cells by trypan blue dye exclusion. The attached cells were fixed for morphologic assessment of apoptotic changes. […] HuH-7 cells were incubated with Dulbecco's medium supplemented with either 1 nM TGF-β1 (R & D Systems, Minneapolis, Minn.), 100 μM UDCA, TGF-β1+UDCA, or no addition (control) for 24 h, 48 h, and 72 h. Hep G2 cells were incubated with Dulbecco's medium supplemented with either 0.5 μg/ml of anti-Fas antibody CH-11 (Upstate Biotechnology, Inc., Lake Placid, N.Y.), 100 μM UDCA, CH-11+UDCA, or no addition for 48 h. […] Morphological evaluation of apoptosis. Morphology was performed as described previously (Oberhammer et al., Proc. Natl. Acad. Sci. USA 89, 5408-5412 (1992)). […] Fluorescence was visualized with a Zeiss standard fluorescence microscope (Carl Zeiss, Inc., Thornwood, N.Y.). Photographs were taken with Kodak Ektar-1000 film (Eastman Kodak Co.). Stained nuclei were scored by blind analysis and categorized according to the condensation and staining characteristics of chromatin. Normal nuclei were identified as noncondensed chromatin dispersed over the entire nucleus. Apoptotic nuclei were identified by condensed chromatin, contiguous to the nuclear membrane, as well as nuclear fragmentation of condensed chromatin.

A further assay deals with PARP. The assay is described as follows: PARP cleavage in rat hepatocytes. The class given is cell-based. Particulars: pretreatment with UDCA; DCA, TGF-β1 or okadaic acid. The source says:
Determination of PARP cleavage. For the determination of PARP cleavage, total protein were separated on a 8% SDS-polyacrylamide electrophoresis gel. Blots were probed with primary polyclonal antibody to PARP (Santa Cruz Biotechnology).

One may read the cell viability as the share of living cells, or the viability signal relative to a control.

Procedure for Bad: Male 160-175 g Sprague-Dawley rats (Sprague-Dawley, Indianapolis, Ind.), were maintained on a 12 h light-dark cycle and fed standard laboratory chow ad libitum for 3 days. The animals were then transferred to metabolic cages and fed diets of standard laboratory chow supplemented with either no bile acid or 0.4% (wt/wt) DCA, 0.4% UDCA, or a combination of DCA+UDCA (Bio-Serv, Frenchtown, N.J.). On day 10, the animals were sacrificed by exsanguination under ether anesthesia between 9 a.m. and 11 a.m. The livers were removed, rinsed in normal saline, and flash-frozen in liquid nitrogen until western blot analyses of apoptosis-related proteins were performed.
Cytoplasmic proteins were isolated from rat liver tissue as described previously (Trembley et al., Cell Growth & Differ., 7, 903-916 (1996)). […] Cytoplasmic and mitochondrial protein concentrations were determined using the Bio-Rad protein assay (Bio-Rad Laboratories). […]
Video densitometry was accomplished using a Macintosh II (Apple Computer, Cupertino, Calif.) coupled to a Data Translation DT2255 video digitizer (Data Translation, Marlboro, Mass.) and a JVC GX-N8 video camera (JVC Corporation of America, Elmwood Park, N.J.) as described previously (Kren et al., J. Cell Biol., 123, 707-718 (1993)). Quantitation of the autoradiograms was performed using the NIH Image 1.4 densitometric analysis program.

`C[C@H](CCC(=O)O)[C@H]1CC[C@H]2[C@@H]3CC[C@@H]4C[C@H](O)CC[C@]4(C)[C@H]3C[C@H](O)[C@]12C` [DCA, deoxycholic acid]: the “cytoplasmic Bad expression, increase” value in the assay on Bad was “approximately 2 fold”.

On to `C[C@H](CCC(=O)O)[C@H]1CC[C@H]2[C@@H]3[C@@H](O)C[C@@H]4C[C@H](O)CC[C@]4(C)[C@H]3CC[C@]12C` [UDCA, ursodeoxycholic acid], for which, in the assay on primary rat hepatocytes (0.5% ethanol + 50 μM UDCA), the cell viability is reported as 79.5±7.9%. In addition, the “Inhibition % Apoptosis” value in the assay with primary rat hepatocytes (inducer ETOH, hepatocytes, inhibition by UDCA) is given as 75.9 ± 13.8%; in the assay on Hep G2 cells (inducer CH-11, Hep G2, inhibition by UDCA) it was 83.2 ± 7.0%. In addition, the “cells exhibiting apoptotic changes” value in the assay with Hep G2 cells (0.5 μg/ml CH-11 or 100 μM UDCA alone, 48 h) is 0.7%. In addition, the “inhibition of apoptotic changes” value in assay [1] is recorded as 50-100%. Also, the “prevention of PARP cleavage” value in the assay with PARP is on record as 60%.
